From paper PMC7696167 (Pharmaceutics, 2020)

Experiments:
[1] = Population pharmacokinetic model of oral roscovitine and metabolite M3, first dose, ROSCO-CF trial
CYP3A4 = test system: CYP3A4; set-up: method as in PMID 18048486; conditions: cited from earlier work
CYP2B6 = test system: CYP2B6; set-up: method as in PMID 18048486; conditions: cited from earlier work
[2] = test system: P-glycoprotein 1 (P-gp, MDR1 or ABCB1) efflux pump; set-up: method as in PMID 20699410; conditions: cited from earlier work
[3] = population estimate, adult CF patients, oral
[4] = population estimate, covariate effect

With `CC[C@@H](Nc1nc(NCc2ccccc2)c2ncn(C(C)C)c2n1)C(=O)O` [M3] the “ke: elimination rate of the metabolite” value ([1]; population estimate) was 2.58 h⁻¹.
For `CC[C@H](CO)Nc1nc(NCc2ccccc2)c2ncn(C(C)C)c2n1` [roscovitine, (R)-roscovitine], the “substrate for CYP3A4” value (CYP3A4) is listed as “substrate”, the “substrate for CYP2B6” value (CYP2B6) is listed as “substrate” and the “substrate for P-glycoprotein 1 efflux pump” value [2] is listed as “substrate”. For the same compound, the “rate of absorption in patients treated with PPIs” value ([1]; oral roscovitine, adult CF patients) was “slower rate of absorption”, the “CV1: coefficient of variation of first inverse Gaussian absorption function” value ([1]; population estimate) was 0.542 and the “CV2: coefficient of variation of second inverse Gaussian absorption function” value ([1]; population estimate) was 0.354. For the same compound, the “k12: distribution rate to the peripheral compartment” value ([1]; population estimate) was 1.82 h⁻¹, the “k21: distribution rate from the peripheral compartment” value ([1]; population estimate) was 0.768 h⁻¹ and the “kmet: systemic conversion rate of roscovitine in its carboxylate metabolite M3” value ([1]; population estimate) was 2.07 h⁻¹. For the same compound, the “T1max: time at which the first inverse Gaussian absorption function reaches its maximum” value [1, 3] was 0.676 h, the “dT2max (T2max = T1max + dT2max), inverse Gaussian absorption parameter” value [1, 3] was 1.04 h and the “π1: weight associated with the first input fraction” value [1, 3] was 0.285. For the same compound, the “D50: oral dose of roscovitine for which Fdose is 50%” value ([1]; population estimate, adult CF patients, oral 200-800 mg) was 1190 µmol, the “β (PPI = 1) on T1max: coefficient for modification of T1max in patients taking PPI” value [1, 4] was 0.680 and the “β height (cm) on V: coefficient for the effect of height on V/F” value [1, 4] was 6.47. For the same compound, the “V/F: apparent volume of the central compartment after oral administration” value ([1]; population estimate, single parameter common to roscovitine and M3, reference height 170 cm) was 62.2 L.
